Test results published in US20140271922A1, “PIRENZEPINE AS AN AGENT IN CANCER TREATMENT” (PROTEOSYS AG, priority 2009, published 2014).
Entries after “also recorded” stand apart in the source; their conditions may differ.

Test system: Human H460 Large Cell Lung Cancer (NCI-H460 human NSCLC cells)
Assay: Tumor growth in the H460 lung tumor xenograft model
Assay type: in vivo, Female NMRI nude mice
Settings: for effect on tumor growth, single agent (in words): PSY 310 alone, 50 mg/kg/d po, 50 mg/kg/day; for potentiation of the cytostatic effects of cisplatin (in words): PSY 310 po co-administered with cisplatin ip
Description: PSY 310 was tested with 2 different dosing schedules of cisplatin. • Animals: Female NMRI nude mice (Janvier, Le Genest St Isle, France), age: 6-7 weeks at start of experiment Janvier, Le Genest St Isle, France; age 5-6 weeks). 70 animals were inoculated at the beginning of the experiment. • Cells: Human H460 Large Cell Lung Cancer (ATCC: HTB-177); • 3×10^6 cells from cell culture was inoculated subcutaneously per mouse in a volume of 200 μl on day 0. • Application route: subcutaneously; • 1 tumor/mouse • Tumor volume at • start of therapy: 62.5-100 mm^3 • (formula: a×b^2×0.5; a: length, b width) • Test compounds: Cisplatin, • PSY 310 (Pirenzepine) • Dosing: Cisplatin • 1) high dose: 1×/week, 2 weeks (days 7, 14) • dose: 2.5 mg/kg/day; route: ip • 2) low dose 5×/week, 2 weeks (days 7-11+14-18) • dose: 0.15 mg/kg/day; route: ip • PSY 310 • 1×/day for 12 days (days 7-19) • dose: 50 and 20 mg/kg/day; route: po • Vehicle/solvent: Cisplatin:water for injection • PSY 310: PBS, oral gavage • Application volume: 10 ml/kg • Criteria for study termination: Animal weight loss >20% • Tumor >10% body weight or ulceration of tumors • Parameters: […] [table] [table] NCI-H460 human NSCLC cells were implanted in the flanks of immunodeficient mice and growth of the resultant solid tumors was recorded. Mice were assigned to seven treatment groups as indicated above. Tumor dimensions (and animal body weights) were measured on days 10, 14, 17, and 21 after inoculation, and tumor volumes were calculated. As tumor growth was close to exponential evaluations were performed on the common logarithms of tumor volumes in order to render the data suitable for evaluation by a linear model. […] Alternatively, the ratios log(volume)/log(initial volume) were employed, yielding very similar results. Tumors with extremely small initial volumes (<20 μl) in which volume measurements are expected to be rather imprecise were omitted from the evaluations. Comparisons were carried out in the following way: • The slopes of log(volume) over time (i.e. the exponent of the approximately exponential volume growth) were determined for each animal. The ratios of the exponents averaged over the respective groups are given as a measure of the magnitude of the growth retarding effect of the current treatment. • Multivariate variance analyses using the day of measurement and Cisplatin/PSY 310 treatment as model effects were performed.

SMILES	exponent ratio (ratio of group-averaged slopes of log(tumor volume) over time) (Cisplatin high (2.5 mg/kg/day ip) versus Cisplatin low (0.15 mg/kg/day ip), ANOVA p = 0.91)	exponent ratio (ratio of group-averaged slopes of log(tumor volume) over time) (Cisplatin high (2.5 mg/kg/day ip, 1x/week, 2 weeks) versus Control, ANOVA p = 0.014)	exponent ratio (ratio of group-averaged slopes of log(tumor volume) over time) (Cisplatin low (0.15 mg/kg/day ip, 5x/week, 2 weeks) versus Control, ANOVA p = 0.077)	effect on tumor growth of cisplatin alone (in words) (cisplatin ip, low and high dose regimens)	exponent ratio (ratio of group-averaged slopes of log(tumor volume) over time) (PSY 310 50 mg/kg/day po alone (1x/day, 12 days) versus Cisplatin high, ANOVA p = 0.016)	exponent ratio (ratio of group-averaged slopes of log(tumor volume) over time) (PSY 310 50 mg/kg/day po alone (1x/day, 12 days) versus Control, ANOVA p = 0.0003)	effect on tumor growth, single agent (in words)	effect on tumor growth, single agent (in words) (listed as Pirenzepine)	potentiation of the cytostatic effects of cisplatin (in words)	potentiation of the cytostatic effects of cisplatin (in words) (listed as Pirenzepine)
N.N.[Cl][Pt][Cl] [Cisplatin]	0.96	0.81	0.85	moderate effects						
CN1CCN(CC(=O)N2c3ccccc3C(=O)Nc3cccnc32)CC1 [PSY 310]					0.74	0.61	even more effective than cisplatin-low dose and cisplatin-high dose regimens; also recorded: single agent cytostatic properties; also recorded: major effect	significant anti-cancer activity by itself	potentiating the cytostatic effects of cisplatin	significant potentiating anti-cancer activity
